pIC50: −log10 of the molar value. Calls of active or inactive are those of the source. No rule for the calls is given here.
Key:
[1] = system: Toxoplasma gondii; experiment: Antiparasitic activity against Toxoplasma gondii infected in human foreskin fibroblasts assessed as inhibition of replication measured as decrease in the number of tachyzoites in vacuole at 10 uM after 24 hrs by fluorescence assay; assay type: functional, organism-based
[2] = Cytotoxicity against human foreskin fibroblasts after 5 days by colorimetric assay; assay type: cell-based; conditions: human foreskin fibroblasts (HFF cells), read-out: TD50
[3] = system: Toxoplasma gondii; experiment: Antiparasitic activity against Toxoplasma gondii infected in human foreskin fibroblasts assessed as tachyzoite growth inhibition after 5 days by colorimetric assay; assay type: functional, organism-based; conditions: 120 h
[4] = Therapeutic index, ratio of TD50 for human foreskin fibroblasts to IC50 for Toxoplasma gondii infected in human foreskin fibroblasts; conditions: read-out: TI

Row | Compound | inhibition [1] | CC50 at 120 h [2] | pIC50 [3] | selectivity ratio [4] | IC90 [3]
1 | O=C1CS/C(=N/N=C\c2ccc3c(c2)OCO3)N1 | Active | ≥ 320 µM | ≤ 3.49 | – | –
2 | C/C(=N/N=C1/SCC(=O)N1Cc1ccccc1)c1ccccc1 | Active | ≥ 320 µM | 4.21 | 9 | 294 µM
3 | O=C1CS/C(=N/N=C2CCCCC2)N1Cc1ccccc1 | Active | ≥ 320 µM | 3.59 | 2 | 662 µM
4 | C/C(=N/N=C1\NC(=O)CS1)c1ccccc1 | Active | ≥ 320 µM | 3.94 | 5 | 262 µM
5 | O=C1CS/C(=N/N=C\c2cccs2)N1 | Active | ≥ 320 µM | 3.87 | 4 | 2680 µM
6 | CCC/C(C)=N\N=C1/NC(=O)CS1 | Active | ≥ 320 µM | 3.58 | 2 | 1060 µM
7 | CC(C)=C/C(C)=N\N=C1/NC(=O)CS1 | Active | ≥ 320 µM | 4.01 | 6 | 316 µM
8 | CC1CCCC/C1=N/N=C1/SCC(=O)N1Cc1ccccc1 (configuration not stated) | Active | ≥ 320 µM | 4.37 | 13 | 171 µM
9 | C=CCC/C(C)=N\N=C1\SCC(=O)N1Cc1ccccc1 | Active | ≥ 320 µM | 3.68 | 3 | 885 µM
10 | O=C1CSC(NN=C2CCCCCC2)=N1 | Active | ≥ 320 µM | 3.95 | 5 | 387 µM
11 | CC1CCC/C1=N/N=C1/SCC(=O)N1Cc1ccccc1 (configuration not stated) | Active | ≥ 320 µM | 4.28 | 11 | 329 µM
12 | O=C1CS/C(=N/N=C\c2ccc3c(c2)OCO3)N1Cc1ccccc1 | Active | ≥ 320 µM | 3.54 | 2 | 2140 µM
13 | CC(C)(C)C1CCCC/C1=N/N=C1/SCC(=O)N1Cc1ccccc1 (configuration not stated) | Active | ≥ 320 µM | 3.99 | 6 | 295 µM
14 | C/C(=N/N=C1/SCC(=O)N1Cc1ccccc1)C1CCCCC1 | Active | 60 µM | 4.62 | 3 | 71 µM
15 | O=C1CS/C(=N/N=C\c2c[nH]c3ccccc23)N1Cc1ccccc1 | Active | 102 µM | 4.28 | 2 | 177 µM
16 | C/C(=N\N=C1/NC(=O)CS1)c1ccncc1 | Active | ≥ 320 µM | 4.28 | 11 | 401 µM
17 | CC(C)(C)C1CCCC/C1=N/N=C1\NC(=O)CS1 (configuration not stated) | Active | ≥ 320 µM | 3.66 | 3 | 693 µM
18 | C/C(=N/N=C1\NC(=O)CS1)c1cccnc1 | Active | ≥ 320 µM | 4.13 | 8 | 406 µM
19 | C/C(=N/N=C1/SCC(=O)N1Cc1ccccc1)c1cc2ccccc2oc1=O | Active | ≥ 320 µM | ≤ 3.49 | – | –
20 | CC/C(C)=N\N=C1/NC(=O)CS1 | Active | ≥ 320 µM | 3.88 | 4 | 1160 µM
21 | C/C(=N/N=C1\NC(=O)CS1)c1ccco1 | Active | ≥ 320 µM | ≤ 3.49 | – | –
22 | CCCCCC/C(C)=N\N=C1\SCC(=O)N1Cc1ccccc1 | Active | 109 µM | 4.70 | 6 | 88 µM
23 | O=C1CS/C(=N/N=C\c2c[nH]c3ccccc23)N1 | Active | ≥ 320 µM | 3.78 | 3 | 474 µM
24 | O=C1CS/C(=N/N=C\c2ccco2)N1Cc1ccccc1 | Active | ≥ 320 µM | 3.95 | 5 | 396 µM
25 | O=C1CS/C(=N/N=C\c2cccnc2)N1 | Active | ≥ 320 µM | 4.28 | 11 | 268 µM
26 | CC(C)=C/C(C)=N\N=C1\SCC(=O)N1Cc1ccccc1 | Active | 67 µM | 4.64 | 3 | 186 µM
27 | CC(C)=N/N=C1/SCC(=O)N1Cc1ccccc1 | Active | ≥ 320 µM | 3.63 | 2 | 636 µM

Row | Compound | inhibition [1] | CC50 at 120 h [2] | pIC50 [3] | selectivity ratio [4] | IC90 [3]
28 | O=C1CS/C(=N/N=C2CCCC2)N1Cc1ccccc1 | Active | ≥ 320 µM | 3.98 | 5 | 330 µM
29 | COc1cc(Cc2cnc(N)nc2N)cc(OC)c1OC [TRIMETHOPRIM] | Active | ≥ 320 µM | 4.89 | 43 | 73 µM
30 | CC1CCCC/C1=N/N=C1\NC(=O)CS1 (configuration not stated) | Active | ≥ 320 µM | 3.61 | 2 | 785 µM
31 | C/C(=N/N=C1/SCC(=O)N1Cc1ccccc1)c1cccnc1 | Active | 147 µM | 4.09 | 3 | 181 µM
32 | CC1CCC/C(=N/N=C2/SCC(=O)N2Cc2ccccc2)C1 (configuration not stated) | Active | 95 µM | 4.24 | 2 | 248 µM
33 | O=C1CS/C(=N/N=C2CCCCCCC2)N1Cc1ccccc1 | Active | 205 µM | 4.37 | 5 | 508 µM
34 | C/C(=N/N=C1\NC(=O)CS1)c1ccccn1 | Active | 16 µM | 5.54 | 6 | 7 µM
35 | C/C(=N/N=C1\NC(=O)CS1)c1ccc2ccccc2c1 | Active | ≥ 320 µM | 4.25 | 10 | 175 µM
36 | O=C1CS/C(=N/N=C\c2ccncc2)N1Cc1ccccc1 | Active | 203 µM | 3.93 | 2 | 304 µM
37 | CCC(CC)=N/N=C1\NC(=O)CS1 | Active | ≥ 320 µM | 3.90 | 4 | 580 µM
38 | CCC/C(C)=N\N=C1\SCC(=O)N1Cc1ccccc1 | Active | ≥ 320 µM | 4.33 | 12 | 214 µM
39 | CCCCC/C(C)=N\N=C1\SCC(=O)N1Cc1ccccc1 | Active | 88 µM | 4.72 | 5 | 120 µM
40 | C/C(=N/N=C1\NC(=O)CS1)c1cccs1 | Active | ≥ 320 µM | 4.19 | 9 | 387 µM
41 | O=C1CS/C(=N/N=C\c2cccs2)N1Cc1ccccc1 | Active | 54 µM | 3.57 | < 1 | 1660 µM
42 | C/C(CC(C)C)=N/N=C1/SCC(=O)N1Cc1ccccc1 | Active | 220 µM | 4.64 | 10 | 188 µM
43 | C/C(=N/N=C1/SCC(=O)N1Cc1ccccc1)c1ccccn1 | Active | ≥ 320 µM | ≤ 3.49 | – | –
44 | C/C(=N/N=C1/SCC(=O)N1Cc1ccccc1)c1ccc2ccccc2c1 | Active | ≥ 320 µM | 3.96 | 5 | 499 µM
45 | CC1CC/C(=N/N=C2/SCC(=O)N2Cc2ccccc2)C1 (configuration not stated) | Active | ≥ 320 µM | 3.74 | 3 | 845 µM
46 | C=CCC/C(C)=N\N=C1/NC(=O)CS1 | Active | ≥ 320 µM | 3.71 | 3 | 2220 µM
47 | CCC(CC)=N/N=C1/SCC(=O)N1Cc1ccccc1 | Active | ≥ 320 µM | 4.44 | 16 | 243 µM
48 | CC1CCC(=N/N=C2/SCC(=O)N2Cc2ccccc2)CC1 (configuration not stated) | Active | 286 µM | 4.06 | 3 | 242 µM
49 | CCCC/C(CC)=N\N=C1/NC(=O)CS1 | Active | ≥ 320 µM | 4.05 | 6 | 288 µM
50 | O=C1CS/C(=N/N=C\c2cccnc2)N1Cc1ccccc1 | Active | 239 µM | 3.95 | 2 | 245 µM
51 | C/C(=N/N=C1\NC(=O)CS1)C1CCCCC1 | Active | ≥ 320 µM | 4.26 | 10 | 283 µM
52 | O=C1CS/C(=N/N=C2CCCCCC2)N1Cc1ccccc1 | Active | ≥ 320 µM | 3.59 | 2 | 1530 µM
53 | CC1CCC/C(=N/N=C2\NC(=O)CS2)C1 (configuration not stated) | Active | 202 µM | 4.44 | 6 | 310 µM
